According to PubChem BioAssay (NCI):
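1) Cells in 96-well plates. 2) Compound, 48 h, 5 concentrations. 3) Linear interpolation between surrounding doses. 4) Unreached endpoint = highest concentration. At the TGI there is no net growth.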

Experiments:
Assay in all cases: DTP human tumour cell line panel, 48 h
[1] = test system: OVCAR-4 ovarian
[2] = test system: HCT-15 colon
[3] = test system: NCI-H460 lung
[4] = test system: SF-539 CNS
[5] = test system: HS 578T breast
[6] = test system: NCI/ADR-RES ovarian
[7] = test system: SK-MEL-5 melanoma
[8] = test system: MDA-N
[9] = test system: LOX IMVI melanoma
[10] = test system: MOLT-4 leukemia
[11] = test system: A549 NSCLC
[12] = test system: SNB-19 CNS
[13] = test system: NCI-H522 lung
[14] = test system: HT29 colon
[15] = test system: UACC-257 melanoma
[16] = test system: COLO 205 colon
[17] = test system: MCF7 breast
[18] = test system: SF-295 CNS
[19] = test system: EKVX NSCLC
[20] = test system: A498 renal
[21] = test system: SK-OV-3 ovarian
[22] = test system: PC-3 prostate
[23] = test system: CAKI-1 renal
[24] = test system: SF-268 CNS
[25] = test system: SNB-75 CNS
[26] = test system: HOP-62 NSCLC
[27] = test system: T-47D breast
[28] = test system: RXF 393 renal
[29] = test system: UACC-62 melanoma
[30] = test system: HL-60(TB) leukemia
[31] = test system: HCT-116 colon
[32] = test system: SW-620 colon
[33] = test system: SK-MEL-28 melanoma
[34] = test system: BT-549 breast
[35] = test system: HOP-92 NSCLC
[36] = test system: OVCAR-3 ovarian
[37] = test system: NCI-H23 lung
[38] = test system: MDA-MB-231 breast
[39] = test system: DU-145 prostate
[40] = test system: TK-10 renal
[41] = test system: SN12C renal
[42] = test system: IGROV1 ovarian
[43] = test system: HCC-2998 colon
[44] = test system: UO-31 renal
[45] = test system: CCRF-CEM leukemia
[46] = test system: K-562 leukemia
[47] = test system: OVCAR-5 ovarian
[48] = test system: NCI-H226 lung
[49] = test system: OVCAR-8 ovarian
[50] = test system: SK-MEL-2 melanoma
[51] = test system: MDA-MB-435
[52] = test system: MALME-3M melanoma
[53] = test system: ACHN renal
[54] = test system: U251 CNS
[55] = test system: M14 melanoma
[56] = test system: KM12 colon
[57] = test system: 786-0 renal
[58] = test system: RPMI-8226 leukemia

CCOC(=O)C(C(=O)OCC)C1C=CCC2c3ccccc3COCC21 (stereo not given)
TGI [1]: > 100 µM
TGI [2]: > 100 µM
TGI [3]: > 100 µM
TGI [4]: > 100 µM
TGI [5]: > 100 µM
TGI [6]: 96.1 µM
TGI [7]: 36 µM
TGI [8]: > 100 µM
TGI [9]: > 100 µM
TGI [10]: > 100 µM
TGI [11]: > 100 µM
TGI [12]: > 100 µM
TGI [13]: 71.2 µM
TGI [14]: > 100 µM
TGI [15]: > 100 µM
TGI [16]: 48.9 µM
TGI [17]: > 100 µM
TGI [18]: > 100 µM
TGI [19]: > 100 µM
TGI [20]: > 100 µM
TGI [21]: > 100 µM
TGI [22]: > 100 µM
TGI [23]: > 100 µM
TGI [24]: > 100 µM
TGI [25]: > 100 µM
TGI [26]: > 100 µM
TGI [27]: > 100 µM
TGI [28]: > 100 µM
TGI [29]: > 100 µM
TGI [30]: 56.8 µM
TGI [31]: > 100 µM
TGI [32]: > 100 µM
TGI [33]: > 100 µM
TGI [34]: > 100 µM
TGI [35]: > 100 µM
TGI [36]: > 100 µM
TGI [37]: > 100 µM
TGI [38]: > 100 µM
TGI [39]: > 100 µM
TGI [40]: > 100 µM
TGI [41]: > 100 µM
TGI [42]: > 100 µM
TGI [43]: > 100 µM
TGI [44]: > 100 µM
TGI [45]: > 100 µM
TGI [46]: > 100 µM
TGI [47]: > 100 µM
TGI [48]: > 100 µM
TGI [49]: > 100 µM
TGI [50]: > 100 µM
TGI [51]: > 100 µM
TGI [52]: > 100 µM
TGI [53]: > 100 µM
TGI [54]: > 100 µM
TGI [55]: > 100 µM
TGI [56]: > 100 µM
TGI [57]: > 100 µM
TGI [58]: > 100 µM

O=[N+]([O-])/C(C(Cl)=C(Cl)Cl)=C(\Nc1cccc2ccccc12)n1nnc2ccccc21
TGI [1]: > 100 µM
TGI [2]: > 100 µM
TGI [3]: > 100 µM
TGI [4]: > 100 µM
TGI [5]: 39.1 µM
TGI [6]: > 100 µM
TGI [8]: > 100 µM
TGI [9]: > 100 µM
TGI [11]: > 100 µM
TGI [12]: > 100 µM
TGI [14]: > 100 µM
TGI [15]: > 100 µM
TGI [16]: 41 µM
TGI [17]: > 100 µM
TGI [18]: > 100 µM
TGI [19]: > 100 µM
TGI [20]: > 100 µM
TGI [21]: > 100 µM
TGI [22]: > 100 µM
TGI [23]: > 100 µM
TGI [24]: > 100 µM
TGI [25]: > 100 µM
TGI [26]: > 100 µM
TGI [27]: > 100 µM
TGI [28]: 79.3 µM
TGI [29]: > 100 µM
TGI [31]: > 100 µM
TGI [32]: > 100 µM
TGI [33]: > 100 µM
TGI [34]: 98.8 µM
TGI [36]: > 100 µM
TGI [37]: > 100 µM
TGI [38]: > 100 µM
TGI [39]: > 100 µM
TGI [41]: > 100 µM
TGI [43]: > 100 µM
TGI [44]: > 100 µM
TGI [45]: > 100 µM
TGI [47]: > 100 µM
TGI [48]: > 100 µM
TGI [49]: > 100 µM
TGI [50]: > 100 µM
TGI [51]: > 100 µM
TGI [52]: > 100 µM
TGI [53]: > 100 µM
TGI [54]: > 100 µM
TGI [55]: > 100 µM
TGI [56]: > 100 µM
TGI [57]: > 100 µM
TGI [58]: > 100 µM

N#Cc1c(=N)cc2c3ccccc3oc3c(C#N)c(N)[nH]c1c32
TGI [1]: > 100 µM
TGI [2]: > 100 µM
TGI [3]: > 100 µM
TGI [4]: > 100 µM
TGI [5]: > 100 µM
TGI [6]: > 100 µM
TGI [7]: > 100 µM
TGI [8]: > 100 µM
TGI [9]: > 100 µM
TGI [10]: > 100 µM
TGI [11]: > 100 µM
TGI [12]: > 100 µM
TGI [14]: > 100 µM
TGI [15]: > 100 µM
TGI [16]: > 100 µM
TGI [17]: > 100 µM
TGI [18]: > 100 µM
TGI [19]: > 100 µM
TGI [20]: > 100 µM
TGI [21]: > 100 µM
TGI [22]: > 100 µM
TGI [23]: > 100 µM
TGI [24]: > 100 µM
TGI [25]: > 100 µM
TGI [26]: > 100 µM
TGI [27]: > 100 µM
TGI [28]: > 100 µM
TGI [29]: > 100 µM
TGI [30]: > 100 µM
TGI [31]: > 100 µM
TGI [32]: > 100 µM
TGI [33]: > 100 µM
TGI [34]: > 100 µM
TGI [35]: > 100 µM
TGI [36]: > 100 µM
TGI [37]: > 100 µM
TGI [38]: > 100 µM
TGI [39]: > 100 µM
TGI [40]: > 100 µM
TGI [41]: > 100 µM
TGI [42]: > 100 µM
TGI [43]: > 100 µM
TGI [44]: > 100 µM
TGI [45]: > 100 µM
TGI [46]: > 100 µM
TGI [47]: > 100 µM
TGI [48]: > 100 µM
TGI [49]: > 100 µM
TGI [50]: > 100 µM
TGI [51]: > 100 µM
TGI [52]: > 100 µM
TGI [53]: > 100 µM
TGI [54]: > 100 µM
TGI [55]: > 100 µM
TGI [56]: > 100 µM
TGI [57]: > 100 µM
TGI [58]: > 100 µM

CCN(CC)CCn1ncc2c(N)ncnc21
TGI [1]: > 100 µM
TGI [2]: > 100 µM
TGI [3]: > 100 µM
TGI [5]: > 100 µM
TGI [6]: > 100 µM
TGI [7]: > 100 µM
TGI [8]: > 100 µM
TGI [9]: > 100 µM
TGI [10]: > 100 µM
TGI [11]: > 100 µM
TGI [12]: > 100 µM
TGI [13]: > 100 µM
TGI [14]: > 100 µM
TGI [16]: > 100 µM
TGI [17]: > 100 µM
TGI [18]: > 100 µM
TGI [19]: > 100 µM
TGI [20]: > 100 µM
TGI [21]: > 100 µM
TGI [22]: > 100 µM
TGI [23]: > 100 µM
TGI [24]: > 100 µM
TGI [26]: > 100 µM
TGI [27]: > 100 µM
TGI [28]: > 100 µM
TGI [29]: > 100 µM
TGI [31]: > 100 µM
TGI [32]: > 100 µM
TGI [33]: > 100 µM
TGI [34]: > 100 µM
TGI [35]: > 100 µM
TGI [36]: > 100 µM
TGI [37]: > 100 µM
TGI [38]: > 100 µM
TGI [39]: > 100 µM
TGI [40]: > 100 µM
TGI [41]: > 100 µM
TGI [42]: > 100 µM
TGI [43]: > 100 µM
TGI [44]: > 100 µM
TGI [45]: > 100 µM
TGI [46]: > 100 µM
TGI [47]: > 100 µM
TGI [48]: > 100 µM
TGI [49]: > 100 µM
TGI [50]: > 100 µM
TGI [51]: > 100 µM
TGI [52]: > 100 µM
TGI [53]: > 100 µM
TGI [54]: > 100 µM
TGI [55]: > 100 µM
TGI [56]: > 100 µM
TGI [57]: > 100 µM
TGI [58]: > 100 µM

O=C1/C(=C/c2ccc(Cl)cc2)N=C(c2ccccc2)N1c1nc2ccc(Sc3ccccc3)cc2[nH]1
TGI [1]: > 100 µM
TGI [2]: > 100 µM
TGI [3]: 61.8 µM
TGI [5]: 91.4 µM
TGI [6]: 75.5 µM
TGI [7]: 29.2 µM
TGI [8]: 27.7 µM
TGI [9]: 61.9 µM
TGI [10]: 87.6 µM
TGI [11]: > 100 µM
TGI [12]: > 100 µM
TGI [13]: 54.3 µM
TGI [14]: 40 µM
TGI [15]: 55.8 µM
TGI [16]: 33.8 µM
TGI [17]: 63.5 µM
TGI [18]: 87.1 µM
TGI [19]: > 100 µM
TGI [20]: 72.3 µM
TGI [21]: > 100 µM
TGI [22]: > 100 µM
TGI [23]: > 100 µM
TGI [24]: > 100 µM
TGI [25]: 60.2 µM
TGI [26]: > 100 µM
TGI [27]: > 100 µM
TGI [28]: > 100 µM
TGI [29]: 29.8 µM
TGI [30]: 35.6 µM
TGI [31]: 62.3 µM
TGI [32]: 80.8 µM
TGI [33]: 72.7 µM
TGI [34]: 57.7 µM
TGI [35]: > 100 µM
TGI [36]: > 100 µM
TGI [37]: > 100 µM
TGI [38]: 90.1 µM
TGI [39]: > 100 µM
TGI [40]: 59.6 µM
TGI [41]: > 100 µM
TGI [42]: > 100 µM
TGI [43]: 31.4 µM
TGI [44]: > 100 µM
TGI [45]: 87 µM
TGI [46]: 61.8 µM
TGI [47]: > 100 µM
TGI [49]: > 100 µM
TGI [50]: 31.6 µM
TGI [51]: 27.1 µM
TGI [52]: 58.9 µM
TGI [53]: > 100 µM
TGI [54]: 84.7 µM
TGI [55]: 35.1 µM
TGI [56]: 81.2 µM
TGI [57]: 64.6 µM
TGI [58]: 55.7 µM
